Values of other authors, collected in US6818391B2, “Glutamate transporters” (The Regents of the University of California, priority 2000, dated 2004).

System: synaptic vesicles
Settings: read-out: Km of vesicular glutamate transport; cited from earlier work

Compound: N[C@@H](CCC(=O)O)C(=O)O [L-Glutamate]
- Km: ~1000 µM
